Laboratory results reported in article PMC11087554, “The STING agonist IMSA101 enhances chimeric antigen receptor T cell function by inducing IL-18 secretion” (Nature Communications, 2024).

Target: T1, STING (stimulator of interferon genes) (Homo sapiens, UniProt Q86WV6)
T1 construct: gene STING1; endogenous STING in THP1-ISG-luc cells
Assay: THP1-ISG-luc ISRE reporter assay with PFO permeabilisation; IFN-beta response lost in STING-KO THP1 cells
Assay type: cell-based

T1 sequence (Q86WV6 whole entry, looked up): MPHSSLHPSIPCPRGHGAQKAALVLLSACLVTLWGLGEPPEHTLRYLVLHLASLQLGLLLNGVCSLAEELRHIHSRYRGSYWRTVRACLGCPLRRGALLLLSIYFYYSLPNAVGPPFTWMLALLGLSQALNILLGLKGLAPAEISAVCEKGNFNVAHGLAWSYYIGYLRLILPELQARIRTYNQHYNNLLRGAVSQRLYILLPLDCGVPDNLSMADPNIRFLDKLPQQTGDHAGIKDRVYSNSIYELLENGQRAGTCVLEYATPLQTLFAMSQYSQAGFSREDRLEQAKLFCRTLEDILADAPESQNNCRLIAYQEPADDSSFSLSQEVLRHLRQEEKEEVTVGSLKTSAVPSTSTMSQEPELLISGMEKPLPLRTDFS

IMSA101
EC50: 20 to 30 nM
